Experimental data published in patent US12521444B2, “Anti-HER2 antibody-drug conjugates and uses thereof” (Fortvita Biologics Limited, priority 2021, dated 2026).

Columns and labels:
SK-BR-3 = assay: In vitro cytotoxicity assay (CCK-8) in SK-BR-3; type: cell-based; settings: Homo sapiens, toxins (expected metabolites of the ADCs), 120 hours
Method: (§1) Dispensed 175 μL cell suspension in 96-well plate at 1500 cells per well and incubate for 24 hours in a humidified incubator (37° C., 5% CO2). […] Added 25 μL various concentrations of compound as a […] solution into the cell culture medium (Fetal bovine serum, Invitrogen) in the plate and incubated for 120 hours in the incubator. Thawed CCK-8 on the bench top or in a 37° C. water bath, added 10 μL of CCK-8 to each well of the incubated plate (be careful not introducing air bubbles into the wells since they would interfere with the O. D. reading) and then further incubated for 1-4 hours in the incubator. Measured the absorbance at 450 nm using a SpectraMax i3× Microplate Reader and calculated the cell inhibition rate. The IC50 curves were generated along with the IC50 values by using GraphPad Prism software.

NCI-N87 = assay: In vitro cytotoxicity assay (CCK-8) in NCI-N87; type: cell-based; settings: Homo sapiens, toxins (expected metabolites of the ADCs), 120 hours
Method: as §1

MDA-MB-468 = assay: In vitro cytotoxicity assay (CCK-8) in MDA-MB-468; type: cell-based; settings: Homo sapiens, toxins (expected metabolites of the ADCs), 120 hours
Method: as §1

JIMT-1 = assay: cells; type: cell-based, human; settings: for IC50: Homo sapiens, JIMT-1, toxins (expected metabolites of the ADCs), 120 hours
Method: as §1

OVCAR-3 = assay: In vitro cytotoxicity assay (CCK-8) in OVCAR-3; type: cell-based; settings: Homo sapiens, toxins (expected metabolites of the ADCs), 120 hours
Method: as §1

MCF-7 = assay: In vitro cytotoxicity assay (CCK-8) in MCF-7; type: cell-based; settings: Homo sapiens, MCF7; toxins (expected metabolites of the ADCs), 120 hours
Method: as §1

SK-OV-3 = assay: In vitro cytotoxicity assay (CCK-8) in SK-OV-3; type: cell-based; settings: Homo sapiens, toxins (expected metabolites of the ADCs), 120 hours
Method: as §1

| SMILES | IC50 (SK-BR-3) [nM] | IC50 (NCI-N87) [nM] | IC50 (MDA-MB-468) [nM] | IC50 (JIMT-1) [nM] | IC50 (OVCAR-3) [nM] | IC50 (MCF-7) [nM] | IC50 (SK-OV-3) [nM] | cytotoxic potency relative to DXd (JIMT-1) |
| --- | --- | --- | --- | --- | --- | --- | --- | --- |
| CCc1c2c(nc3cc(F)c(C)c(CCCCO)c13)-c1cc3c(c(=O)n1C2)COC(=O)[C@]3(O)CC | > 30 | > 30 | > 30 | > 30 | – | – | – | – |
| CC[C@@]1(O)C(=O)OCc2c1cc1n(c2=O)Cc2c-1nc1cc(F)c(C)c3c1c2[C@@H](NC(=O)CO)CC3 [DXd, reference compound] | 1.9 | 3.6 | – | – | – | – | – | – |
| CC[C@@]1(O)C(=O)OCc2c1cc1n(c2=O)Cc2cc3c(CCCCO)c(C)c(F)cc3nc2-1 [MB-1, (19S)-19-ethyl-6-fluoro-19-hydroxy-8-(4-hydroxybutyl)-7-methyl-17-oxa-3,13-diazapentacyclo[11.8.0.0^2,11.0^4,9.0^15,20]henicosa-1(21),2,4,6,8,10,15(20)-heptaene-14,18-dione] | 0.77 | 1.3 | 0.42 | 0.78 | 0.1 | 0.37 | 1 | ten folds more potent than DXd |
